Consider 1 molecule from patent US7880010B2, “Crystalline forms of a dimethylphenyl compound” (Theravance, Inc., priority 2006, dated 2011).

SMILES strings stand for the structures.

Experiment [1] addresses T1, hM2 receptor (Homo sapiens, UniProt P08172).
T1 construct: expressed in transfected cells; host or cells: CHO / CHO-K1
T1 sequence (P08172 1-466): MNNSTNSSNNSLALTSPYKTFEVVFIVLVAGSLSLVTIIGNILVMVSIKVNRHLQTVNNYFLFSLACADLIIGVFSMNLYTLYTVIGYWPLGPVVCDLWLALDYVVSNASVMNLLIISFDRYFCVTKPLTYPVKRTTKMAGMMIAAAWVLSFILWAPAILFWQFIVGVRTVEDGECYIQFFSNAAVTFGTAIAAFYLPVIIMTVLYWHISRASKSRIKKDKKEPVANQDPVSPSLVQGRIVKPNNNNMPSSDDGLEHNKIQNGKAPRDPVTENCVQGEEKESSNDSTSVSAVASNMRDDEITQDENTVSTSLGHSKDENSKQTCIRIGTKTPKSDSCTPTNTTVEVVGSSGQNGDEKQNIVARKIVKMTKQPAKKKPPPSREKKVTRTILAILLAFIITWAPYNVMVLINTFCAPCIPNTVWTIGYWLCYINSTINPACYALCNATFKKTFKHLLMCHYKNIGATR
Nature of the experiment: Blockade of agonist-mediated inhibition of cAMP accumulation (Assay A). Type of experiment: cell-based. The conditions noted are these: CHO-K1 cells expressing the hM2 receptor. As to the method: In this assay, the functional potency of a test compound as an antagonist for the hM2 receptor was determined by measuring the ability of the test compound to block oxotremorine-inhibition of forskolin-mediated cAMP accumulation in CHO-K1 cells expressing the hM2 receptor. cAMP assays were performed in a radioimmunoassay format using the Flashplate Adenylyl Cyclase Activation Assay System with ^125I-cAMP (NEN SMP004B, PerkinElmer Life Sciences Inc., Boston, Mass.), according to the manufacturer's instructions. Cells were rinsed once with dPBS and lifted with Trypsin-EDTA solution (0.05% trypsin/0.53 mM EDTA) as described in the Cell Culture and Membrane Preparation section above. The detached cells were washed twice by centrifugation at 650×g for five minutes in 50 mL dPBS. The cell pellet was then re-suspended in 10 mL dPBS, and the cells were counted with a Coulter Z1 Dual Particle Counter (Beckman Coulter, Fullerton, Calif.). […]
Reactions were incubated for 10 minutes at 37° C. and stopped by addition of 100 μL ice-cold detection buffer. Plates were sealed, incubated overnight at room temperature and counted the next morning on a PerkinElmer TopCount liquid scintillation counter (PerkinElmer Inc., Wellesley, Mass.). The amount of cAMP produced (pmol/well) was calculated based on the counts observed for the samples and cAMP standards, as described in the manufacturer's user manual. […]
(cAMP levels reflect the balance of adenylyl cyclase and phosphodiesterase activity.)

Experiment [2] concerns the target T1, hM2 receptor. In words: Blockade of agonist-mediated [35S]GTPγS binding (Assay B). The class given is biochemical. The conditions noted are these: CHO-K1 cells expressing the hM2 receptor. As to the method: In this functional assay, the functional potency of a test compound as an antagonist of the hM2 receptor was determined by measuring the ability of the test compound to block oxotremorine-stimulated [^35S]GTPγS binding in CHO-K1 cells expressing the hM2 receptor.
At the time of use, frozen membranes were thawed and then diluted in assay buffer with a final target tissue concentration of 5 to 10 μg protein per well. The membranes were briefly homogenized using a Polytron PT-2100 tissue disrupter and then added to the assay plates.
The EC90 value (effective concentration for 90% maximal response) for stimulation of [^35S]GTPγS binding by the agonist oxotremorine was determined in each experiment.
To determine the ability of a test compound to inhibit oxotremorine-stimulated [^35S]GTPγS binding, the following was added to each well of 96 well plates: 25 μL of assay buffer with [^35S]GTPγS (0.4 nM), 25 μL of oxotremorine(EC90) and GDP (3 uM), 25 μL of diluted test compound and 25 μL CHO cell membranes expressing the hM2 receptor. […] Microscint-20 scintillation liquid (50 μL) was added to each well, and each plate was sealed and radioactivity counted on a Topcounter (PerkinElmer). Data were analyzed by nonlinear regression analysis with the GraphPad Prism Software package (GraphPad Software, Inc., San Diego, Calif.) using the non-linear regression, one-site competition equation. […]
In general terms: Binding of GTPγS marks nucleotide exchange on a G protein.

In the case of `Cc1cc(NC(=O)CCN2CCC(OC(=O)Nc3ccccc3-c3ccccc3)CC2)c(C)cc1CNC[C@H](O)c1ccc(O)c(NC=O)c1` [compound of formula I, biphenyl-2-ylcarbamic acid 1-[2-(4-{[(R)-2-(3-formylamino-4-hydroxyphenyl)-2-hydroxyethylamino]methyl}-2,5-dimethylphenylcarbamoyl)ethyl]-piperidin-4-yl ester], at hM2 receptor [1], the “Kobs for blockade of oxotremorine-inhibition of forskolin-mediated cAMP accumulation” value is listed as “less than 10 nM”. The “Kobs for blockade of oxotremorine-stimulated [35S]GTPγS binding” value on hM2 receptor [2] is on record as “less than 10 nM”.
